Measured values reported in BindingDB's records for PubMed 12533678 (Japanese Foundation For Cancer Research, 2003).

Experiments:
[1] = TP_TRANSPORTER: drug resistance(Mitoxantrone) in BCRP-expressing K562 cells
[2] = TP_TRANSPORTER: drug resistance(SN-38) in BCRP-expressing K562 cells

CC/C(=C(/CC)c1ccc(O)cc1)c1ccc(O)cc1
IC50 [1]: 500 nM | IC50 [2]: > 500 nM

CC/C(=C(/c1ccc(OCCN(C)C)cc1)c1ccc(OCc2ccc([N+](=O)[O-])cc2)cc1)c1ccccc1
IC50 [1]: 1500 nM | IC50 [2]: > 2000 nM

CC/C(=C(/c1ccc(OCCN(C)C)cc1)c1ccc(OCc2ccccc2)cc1)c1ccccc1
IC50 [1]: > 2000 nM | IC50 [2]: > 2000 nM

CCC(=O)Oc1ccc(/C(CC)=C(\CC)c2ccc(OC(=O)CC)cc2)cc1 [propanoic acid [4-[(E)-4-[4-(1-oxopropoxy)phenyl]hex-3-en-3-yl]phenyl] ester]
IC50 [1]: > 3000 nM | IC50 [2]: > 3000 nM
